Patent US20250134869A1, “Pyrrolo[2,3-d]pyrimidinyl, Pyrrolo[2,3-b]pyrazinyl and Pyrrolo[2,3-d]pyridinyl Acryla-mides” (Pfizer Inc, priority 2021, published 2025)
Read-outs that look alike come from different tables or passages of the source.

Target: JAK3 enzyme (Homo sapiens (Human), UniProt P52333)
Assay: JAK Caliper Enzyme Assay at 4 μM or 1 mM ATP
Format: biochemical
Description: JAK Caliper Enzyme Assay at […] or 1 mM ATP
Test article was solubilized in dimethyl sulfoxide (DMSO) to a stock concentration of 30 mM. An 11-point half log dilution series was created in DMSO with a top concentration of 600 μM. […] The compound plates were diluted 1 to 60 resulting in a top final assay compound concentration of 10 μM and a 2% DMSO concentration.
Test article and assay controls were added to a 384-well plate. Reaction mixtures contained 20 mM HEPES, pH 7.4, 10 mM magnesium chloride, 0.01% bovine serum albumin (BSA), 0.0005% Tween […] or 1 mM ATP and […] peptide substrate. […] The assays were initiated by the addition 1 nM JAK3 enzyme and were incubated at room temperature 75 minutes for JAK3. Enzyme concentrations and incubation times were optimized for each new enzyme preps and were modified slightly over time to ensure 20%-30% phosphorylation. The assays were stopped with a final concentration of 10 mM EDTA, 0.1% Coating Reagent and 100 mM HEPES, pH=7.4. The assay plates were placed on a Caliper Life Science Lab Chip 3000 (LC3000) instrument, and each well was sampled using appropriate separation conditions to measure the unphosphorylated and phosphorylated peptide.

[1] = read-out: JAK3 (4 μM ATP) IC50, 4 μM ATP
[2] = read-out: JAK3 (1 mM ATP) IC50, 1 mM ATP

Sequence of JAK3 enzyme (P52333 whole entry, species assumed): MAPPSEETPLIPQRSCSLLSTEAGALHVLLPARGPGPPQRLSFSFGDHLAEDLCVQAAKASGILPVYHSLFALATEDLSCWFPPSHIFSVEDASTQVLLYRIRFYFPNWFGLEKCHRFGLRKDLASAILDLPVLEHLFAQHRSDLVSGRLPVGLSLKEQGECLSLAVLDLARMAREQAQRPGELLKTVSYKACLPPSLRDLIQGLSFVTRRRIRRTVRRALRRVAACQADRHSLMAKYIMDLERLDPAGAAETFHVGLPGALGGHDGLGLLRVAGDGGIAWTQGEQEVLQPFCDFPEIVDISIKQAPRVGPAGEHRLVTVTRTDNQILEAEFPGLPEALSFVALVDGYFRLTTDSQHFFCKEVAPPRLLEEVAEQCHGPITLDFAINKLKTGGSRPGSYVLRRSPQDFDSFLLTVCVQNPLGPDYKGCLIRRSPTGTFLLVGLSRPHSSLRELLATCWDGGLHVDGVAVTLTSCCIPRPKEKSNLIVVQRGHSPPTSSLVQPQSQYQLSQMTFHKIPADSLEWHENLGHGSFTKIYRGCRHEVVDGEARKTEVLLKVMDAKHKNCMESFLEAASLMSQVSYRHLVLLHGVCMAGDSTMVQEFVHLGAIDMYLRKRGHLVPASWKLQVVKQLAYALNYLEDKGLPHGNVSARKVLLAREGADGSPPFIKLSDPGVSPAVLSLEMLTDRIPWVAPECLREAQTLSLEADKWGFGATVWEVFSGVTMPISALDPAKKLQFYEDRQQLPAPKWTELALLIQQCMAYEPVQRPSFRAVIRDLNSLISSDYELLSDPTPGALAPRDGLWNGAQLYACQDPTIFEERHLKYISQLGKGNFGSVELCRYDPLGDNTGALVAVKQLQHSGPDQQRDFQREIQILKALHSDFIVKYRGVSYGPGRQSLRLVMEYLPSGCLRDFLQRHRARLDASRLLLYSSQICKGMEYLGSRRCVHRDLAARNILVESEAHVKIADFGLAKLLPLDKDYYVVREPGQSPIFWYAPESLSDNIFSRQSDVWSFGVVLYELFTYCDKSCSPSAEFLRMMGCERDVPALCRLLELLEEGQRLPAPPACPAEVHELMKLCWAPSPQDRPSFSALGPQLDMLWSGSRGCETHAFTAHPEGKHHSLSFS

C=CC(=O)N1CC[C@H]2CN(c3ncnc4[nH]ccc34)[C@H]2C1 [Example 134, 1-[(1R,6S)-8-(7H-Pyrrolo[2,3-d]pyrimidin-4-yl)-3,8-diazabicyclo[4.2.0]oct-3-yl]prop-2-en-1-one]
IC50 [1]: 71.2 nM

C/C=C/C(=O)N1CCC[C@@H](N(C)c2ncnc3[nH]cc(CCOC)c23)C1 [Example 135, (2E)-1-[(3R)-3-{[5-(2-Methoxyethyl)-7H-pyrrolo[2,3-d]pyrimidin-4-yl](methyl)amino}-piperidin-1-yl]but-2-en-1-one]
IC50 [1]: > 10000 nM

C=CC(=O)N1CCC[C@@H](N(C)c2ncnc3[nH]cc(CCOC)c23)C1 [Example 136, 1-[(3R)-3-{[5-(2-Methoxyethyl)-7H-pyrrolo[2,3-d]pyrimidin-4-yl](methyl)amino]piper-idin-1-yl]prop-2-en-1-one]
IC50 [1]: 238 nM

C=CC(=O)N1CCC[C@@H](Nc2ncnc3[nH]cc(Cc4ccc(O)cc4)c23)C1 [Example 137, 1-[(3R)-3-{[5-(4-Hydroxybenzyl)-7H-pyrrolo[2,3-d]pyrimidin-4-yl]amino}piperidin-1-yl]prop-2-en-1-one]
IC50 [1]: 0.3 nM

C/C=C/C(=O)N1CCC[C@@H](Nc2ncnc3[nH]cc(Cc4ccc(O)cc4)c23)C1 [Example 138, (2E)-1-[(3R)-3-{[5-(4-Hydroxybenzyl)-7H-pyrrolo[2,3-d]pyrimidin-4-yl]amino}piperidin-1-yl]but-2-en-1-one]
IC50 [1]: 110 nM

C=C(C)C(=O)N1CCC[C@@H](Nc2ncnc3[nH]cc(Cc4ccc(O)cc4)c23)C1 [Example 139, 1-[(3R)-3-{[5-(4-hydroxybenzyl)-7H-pyrrolo[2,3-d]pyrimidin-4-yl]amino}piperidin-1-yl]-2-methylprop-2-en-1-one]
IC50 [1]: 83.1 nM

C=CC(=O)N1CCC[C@@H](Nc2ncnc3[nH]cc(C(=O)N(C)C)c23)C1 [Example 142, 4-{[(3R)-1-acryloylpiperidin-3-yl]amino}-N,N-dimethyl-7H-pyrrolo[2,3-d]pyrimidine-5-carboxamide]
IC50 [1]: 225 nM

C=CC(=O)N1CCC[C@@H](Nc2ncnc3[nH]cc(C(=O)NCCO)c23)C1 [Example 143, 4-{[(3R)-1-acryloylpiperidin-3-yl]amino}-N-(2-hydroxyethyl)-7H-pyrrolo[2,3-d]pyrimidine-5-carboxamide]
IC50 [1]: 144 nM

C=CC(=O)N1CCC[C@@H](Nc2ncnc3[nH]cc(C(=O)NCC)c23)C1 [Example 144, 4-{[(3R)-1-acryloylpiperidin-3-yl]amino}-N-ethyl-7H-pyrrolo[2,3-d]pyrimidine-5-carboxamide]
IC50 [1]: 139 nM

C=CC(=O)N1CCC[C@@H](Nc2ncnc3[nH]cc(C(=O)NC)c23)C1 [Example 145, 4-{[(3R)-1-acryloylpiperidin-3-yl]amino}-N-methyl-7H-pyrrolo[2,3-d]pyrimidine-5-carboxamide]
IC50 [1]: 112 nM

C=CC(=O)N1CCC[C@@H](Nc2ncnc3[nH]cc(C(=O)N4CCCC4)c23)C1 [Example 146, 1-[(3R)-3-{[5-(pyrrolidin-1-ylcarbonyl)-7H-pyrrolo[2,3-d]pyrimidin-4-yl]amino}pipendin-1-yl]prop-2-en-1-one]
IC50 [1]: 957 nM

C/C=C/C(=O)N1CCC[C@@H](Nc2ncnc3[nH]cc(C(=O)N4CCCC4)c23)C1 [Example 147, (2E)-1-[(3R)-3-{[5-(pyrrolidin-1-ylcarbonyl)-7H-pyrrolo[2,3-d]pyrimidin-4-yl]amino}pipendin-1-yl]but-2-en-1-one]
IC50 [1]: > 10000 nM

C/C=C/C(=O)N1CCC[C@@H](Nc2ncnc3[nH]cc(C(=O)NCCO)c23)C1 [Example 148, 4-({(3R)-1-[(2E)-but-2-enoyl]piperidin-3-yl}amino)-N-(2-hydroxyethyl)-7H-pyrrolo[2,3-d]pyrimidine-5-carboxamide]
IC50 [1]: 6960 nM

C/C=C/C(=O)N1CCC[C@@H](Nc2ncnc3[nH]cc(C(=O)NCCOC)c23)C1 [Example 149, 4-({(3R)-1-[(2E)-but-2-enoyl]piperidin-3-yl}amino)-N-(2-methoxyethyl)-7H-pyrrolo[2,3-d]pyrimidine-5-carboxamide]
IC50 [1]: > 10000 nM

C=C(C)C(=O)N1CCC[C@@H](Nc2ncnc3[nH]cc(CCO)c23)C1 [Example 152, 1-[(3R)-3-{[5-(2-Hydroxyethyl)-7H-pyrrolo[2,3-d]pyrimidin-4-yl]amino}piperidin-1-yl]-2-methylprop-2-en-1-one]
IC50 [1]: 4240 nM

C=CC(=O)N1CCC[C@@H](Nc2c(C#N)cnc3[nH]ccc23)C1 [Example 156, 4-{[(3R)-1-Acryloylpiperidin-3-yl]amino}-1H-pyrrolo[2,3-b]pyridine-5-carbonitrile]
IC50 [1]: 7.2 nM

CN(C)C/C=C/C(=O)N1CCC[C@@H](Nc2ncnc3[nH]cc(CCC#N)c23)C1 [Example 157, 3-[4-({(3R)-1-[(2E)-4-(Dimethylamino)but-2-enoyl]piperidin-3-yl}amino)-7H-pyrrolo[2,3-d]pyrimidin-5-yl]propanenitrile]
IC50 [1]: 1470 nM

N#CCCc1c[nH]c2ncnc(N[C@@H]3CCCN(C(=O)/C=C/CO)C3)c12 [Example 158, 3-[4-({(3R)-1-[(2E)-4-Hydroxybut-2-enoyl]piperidin-3-yl}amino)-7H-pyrrolo[2,3-d]pyrimidin-5-yl]propanenitrile]
IC50 [1]: > 10000 nM

C/C=C/C(=O)N1CCC[C@@H](Nc2ncnc3[nH]cc(CC(C)(C)O)c23)C1 [Example 159, (2E)-1-[(3R)-3-{[5-(2-Hydroxy-2-methylpropyl)-7H-pyrrolo[2,3-d]pyrimidin-4-yl]amino}piperidin-1-yl]but-2-en-1-one]
IC50 [1]: > 10000 nM

C=CC(=O)N1C[C@H](Nc2ncnc3[nH]cc(C#N)c23)CC[C@@H]1C [Example 163, 4-{[(3R,6S)-1-Acryloyl-6-methylpiperidin-3-yl]amino}-7H-pyrrolo[2,3-d]pyrimidine-5-carbonitrile]
IC50 [1]: 0.6 nM
IC50 [2]: 47.1 nM

C=CC(=O)N1C[C@H](Nc2ccnc3[nH]cc(C#N)c23)CC[C@@H]1C [Example 165, 4-{[(3R,6S)-1-Acryloyl-6-methylpiperidin-3-yl]amino}-1H-pyrrolo[2,3-b]pyridine-3-carbonitrile]
IC50 [1]: 0.5 nM
IC50 [2]: 22.7 nM

C=CC(=O)N1Cc2ncn(C)c2C(Nc2ncnc3[nH]ccc23)C1 (stereo not drawn) [Example 166, 1-[1-Methyl-7-(7H-pyrrolo[2,3-d]pyrimidin-4-ylamino)-1,4,6,7-tetrahydro-5H-imidazo[4,5-c]pyridin-5-yl]prop-2-en-1-one]
IC50 [1]: 370 nM
IC50 [2]: > 10000 nM

C=CC(=O)NC1CCN(c2cnc3[nH]ccc3n2)C1 (stereo not drawn) [Example 167, N-[1-(5H-pyrrolo[2,3-b]pyrazin-2-yl)pyrrolidin-3-yl]prop-2-enamide]
IC50 [1]: 2410 nM

C=CC(=O)N(C)C1CCN(c2cnc3[nH]cc(C(=O)NC(C)C)c3n2)CC1 [Example 169, 2-{4-[acryloyl(methyl)amino]piperidin-1-yl}-N-(propan-2-yl)-5H-pyrrolo[2,3-b]pyrazine-7-carboxamide]
IC50 [1]: 42.8 nM
IC50 [2]: 4730 nM

C=CC(=O)N1CC[C@@H]2CN(c3cnc4[nH]cc(C(=O)NC(C)C)c4n3)C[C@@H]21 [Example 170, 2-[(3aR,6aR)-1-acryloylhexahydropyrrolo[3,4-b]pyrrol-5(1H)-yl]-N-(propan-2-yl)-5H-pyrrolo[2,3-b]pyrazine-7-carboxamide]
IC50 [1]: 3.3 nM
IC50 [2]: 392 nM

C=CC(=O)N1CC[C@H](Nc2cnc3[nH]cc(C(=O)NC(C)C)c3n2)C1 [Example 171, 2-{[(3S)-1-acryloylpyrrolidin-3-yl]amino}-N-(propan-2-yl)-5H-pyrrolo[2,3-b]pyrazine-7-carboxamide]
IC50 [1]: 0.4 nM
IC50 [2]: 32.7 nM

C=CC(=O)NC1CN(c2cnc3[nH]cc(C(=O)NC(C)C)c3n2)C1 [Example 173, 2-[3-(acryloylamino)azetidin-1-yl]-N-(propan-2-yl)-5H-pyrrolo[2,3-b]pyrazine-7-carboxamide]
IC50 [1]: 8.1 nM
IC50 [2]: 692 nM

C=CC(=O)N1CCN(c2cnc3[nH]cc(C(=O)NC(C)C)c3n2)CC1 [Example 174, 2-(4-acryloylpiperazin-1-yl)-N-(propan-2-yl)-5H-pyrrolo[2,3-b]pyrazine-7-carboxamide]
IC50 [1]: 0.4 nM
IC50 [2]: 34.8 nM

C=CC(=O)N1CC2(C1)CN(c1cnc3[nH]ccc3n1)C2 [Example 175, 1-[6-(5H-pyrrolo[2,3-b]pyrazin-2-yl)-2,6-diazaspiro[3.3]hept-2-yl]prop-2-en-1-one]
IC50 [1]: 1610 nM

C=CC(=O)N1CCC(Nc2cnc3[nH]ccc3n2)CC1 [Example 176, 1-[4-(5H-pyrrolo[2,3-b]pyrazin-2-ylamino)piperidin-1-yl]prop-2-en-1-one]
IC50 [1]: 7.2 nM
IC50 [2]: 910 nM

C=CC(=O)N[C@H]1CC[C@@H](Nc2cnc3[nH]cc(C(=O)NC(C)C)c3n2)CC1 [Example 182, 2-{[cis-4-(acryloylamino)cyclohexyl]amino}-N-(propan-2-yl)-5H-pyrrolo[2,3-b]pyrazine-7-carboxamide]
IC50 [1]: 11.4 nM
IC50 [2]: 975 nM

C=CC(=O)NC[C@@]12C[C@@H]1CN(c1cnc3[nH]cc(C(=O)NC(C)C)c3n1)C2 [Example 183, 2-{(1R,5S)-1-[(acryloylamino)methyl]-3-azabicyclo[3.1.0]hex-3-yl}-N-(propan-2-yl)-5H-pyrrolo[2,3-b]pyrazine-7-carboxamide]
IC50 [1]: 9.6 nM
IC50 [2]: 794 nM

C=CC(=O)N1CCCN(c2cnc3[nH]cc(C(=O)NC(C)C)c3n2)CC1 [Example 185, 2-(4-acryloyl-1,4-diazepan-1-yl)-N-(propan-2-yl)-5H-pyrrolo[2,3-b]pyrazine-7-carboxamide]
IC50 [1]: 20.4 nM
IC50 [2]: 1460 nM
